# Values of other authors as cited in patent US20110003005A1, “Methods of Treating PDNV and PONV with Extended Release Ondansetron Compositions” (priority 2009, published 2011).
compound,measurement,setting,value
Cc1nccn1CC1CCc2c(c3ccccc3n2C)C1=O (centres unmarked) [ondansetron],effect of ondansetron administered after the 24 h period following surgery,Pan et al. 2008,efficacy
same,effect of oral ondansetron administered in the 24 h period after surgery,Pan et al. 2008,no effect
same,"nausea and vomiting post-discharge, relative to placebo","orally administered, Gan et al. 2002",did reduce
same,improving control of nausea and vomiting in the 24 hour period following surgery,"orally administered, Kovac et al. 1999",ineffective
same,"orally administered ondansetron versus placebo, nausea and vomiting","over a 24 and 72 h period following surgery, Thagaard et al. 2003",no difference
